Where two headings read alike, the source gives them in different places.
Biological target: c-fms (Homo sapiens, UniProt P07333)
Assay: c-fms autophosphorylation, fluorescence polarization competition immunoassay
Format: biochemical
Experimental: Autophosphorylation, Fluorescence Polarization Competition Immunoassay
The assay buffer used was 100 mM 4-(2-hydroxyethyl)piperazine 1-ethanesulfonic acid (HEPES), pH 7.5, 1 mM 1,4-dithio-DL-threitol (DTT), 0.01% (v/v) Tween-20. Compounds were diluted in assay buffer containing 4% dimethylsulfoxide (DMSO) just prior to the assay. […] The kinase reaction was initiated by adding 2 μL of 5 mM ATP (Sigma) in assay buffer. The final concentrations in the assay were 10 nM c-fms, 1 mM ATP, 5 mM MgCl2, 2% DMSO. Control reactions were ran in each plate: in positive and negative control wells, assay buffer (made 4% in DMSO) was substituted for the compound; in addition, positive control wells received 1.2 μL of 50 mM ethylenediaminetetraaceticacid (EDTA).
The plates were incubated at room temperature for 45 min. At the end of the incubation, the reaction was quenched with 1.2 μL of 50 mM EDTA (EDTA was not added to the positive control wells at this point; see above). Following a 5-min incubation, each well received 10 μL of a 1:1:3 mixture of anti-phosphotyrosine antibody, 10×, PTK green tracer, 10× (vortexed), FP dilution buffer, respectively (all from PanVera, cat. # P2837). The plate was covered, incubated for 30 min at room temperature and the fluorescence polarization was read on the Analyst.
The IC50 values shown in Table 1 are averages of three independent measurements.

[1] = 10 nM c-fms, 1 mM ATP, 5 mM MgCl2, 45 min room temperature, averages of three independent measurements, read-out: c-fms Autophosphorylation IC50

c-fms, sequence (P07333 20-972): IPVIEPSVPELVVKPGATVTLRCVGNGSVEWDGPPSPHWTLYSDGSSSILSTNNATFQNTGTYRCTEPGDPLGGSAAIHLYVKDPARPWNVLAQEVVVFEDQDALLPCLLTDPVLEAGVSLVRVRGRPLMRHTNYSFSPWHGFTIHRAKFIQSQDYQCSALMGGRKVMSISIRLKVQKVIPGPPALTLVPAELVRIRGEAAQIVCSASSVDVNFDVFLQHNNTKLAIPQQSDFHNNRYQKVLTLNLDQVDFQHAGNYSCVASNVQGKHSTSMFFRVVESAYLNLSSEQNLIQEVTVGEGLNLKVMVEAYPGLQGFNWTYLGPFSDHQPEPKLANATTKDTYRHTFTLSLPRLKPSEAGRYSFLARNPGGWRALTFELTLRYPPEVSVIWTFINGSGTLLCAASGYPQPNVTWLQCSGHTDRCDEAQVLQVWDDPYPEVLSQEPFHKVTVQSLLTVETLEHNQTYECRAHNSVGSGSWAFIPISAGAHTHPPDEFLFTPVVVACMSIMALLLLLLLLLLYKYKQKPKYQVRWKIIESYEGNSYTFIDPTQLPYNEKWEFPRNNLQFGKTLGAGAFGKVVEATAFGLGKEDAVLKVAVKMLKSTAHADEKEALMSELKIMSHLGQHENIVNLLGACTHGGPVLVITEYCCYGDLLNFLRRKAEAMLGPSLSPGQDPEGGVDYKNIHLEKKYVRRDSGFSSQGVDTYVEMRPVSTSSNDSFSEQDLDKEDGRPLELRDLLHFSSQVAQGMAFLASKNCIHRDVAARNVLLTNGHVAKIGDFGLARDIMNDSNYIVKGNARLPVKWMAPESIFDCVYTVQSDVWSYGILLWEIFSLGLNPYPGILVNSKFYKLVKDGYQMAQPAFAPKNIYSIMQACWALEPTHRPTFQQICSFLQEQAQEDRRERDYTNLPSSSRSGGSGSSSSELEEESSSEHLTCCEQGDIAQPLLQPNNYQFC

IC50 [1] [nM]	IC50 [nM]	SMILES
74	–	CNC(=O)c1cn(-c2ccc3c(c2)CCC3)c2nc(Nc3cccc(C(=O)N(C)C)c3)ncc2c1=O [Cpd 80, 2-(3-Dimethylcarbamoyl-phenylamino)-8-indan-5-yl-5-oxo-5,8-dihydro-pyrido[2,3-d]pyrimidine-6-carboxylic acid methylamide]
56	–	CN1CCN(c2ccc(Nc3ncc4c(=O)c(C(N)=O)cn(C5CCCC5)c4n3)cc2)CC1 [Cpd 19, 8-Cyclopentyl-2-[4-(4-methyl-piperazin-1-yl)-phenylamino]-5-oxo-5,8-dihydro-pyrido[2,3-d]pyrimidine-6-carboxylic acid amide]
18	–	NC(=O)c1cn(-c2ccc3c(c2)CCC3)c2nc(Nc3cccc(CN4CCOCC4)c3)ncc2c1=O [Cpd 24, 8-Indan-5-yl-2-(3-morpholin-4-ylmethyl-phenylamino)-5-oxo-5,8-dihydro-pyrido[2,3-d]pyrimidine-6-carboxylic acid amide]
730	–	CN1CCN(c2ccc(Nc3ncc4c(=O)c(C(N)=O)cn(-c5ccccc5)c4n3)cc2)CC1 [Cpd 13, 2-[4-(4-Methyl-piperazin-1-yl)-phenylamino]-5-oxo-8-phenyl-5,8-dihydro-pyrido[2,3-d]pyrimidine-6-carboxylic acid amide]
33	–	CCNC(=O)c1cn(-c2ccc3c(c2)CCC3)c2nc(Nc3ccc(CCN4CCOCC4)cc3)ncc2c1=O [Cpd 29, 8-Indan-5-yl-2-[4-(2-morpholin-4-yl-ethyl)-phenylamino]-5-oxo-5,8-dihydro-pyrido[2,3-d]pyrimidine-6-carboxylic acid ethyl amide]
20	–	CNC(=O)c1cn(-c2ccc3c(c2)CCC3)c2nc(Nc3ccc(C[C@H]4COC(=O)N4)cc3)ncc2c1=O [Cpd 31, (4S)-8-Indan-5-yl-5-oxo-2-[4-(2-oxo-oxazolidin-4-ylmethyl)-phenylamino]-5,8-dihydro-pyrido[2,3-d]pyrimidine-6-carboxylic acid methyl amide]
31	–	CNC(=O)c1cn(-c2ccc3c(c2)CCC3)c2nc(Nc3ccc(N4CCN(C)CC4)cc3)ncc2c1=O [Cpd 8, 8-indan-5-yl-2-[4-(4-methyl-piperazin-1-yl)-phenylamino]-5-oxo-5,8-dihydro-pyrido[2,3-d]pyrimidine-6-carboxylic acid methylamide]
19	–	NC(=O)c1cn(-c2ccc3c(c2)CCC3)c2nc(Nc3ccc(N4CCOCC4)cc3)ncc2c1=O [Cpd 14, 8-indan-5-yl-2-(4-morpholin-4-yl-phenylamino)-5-oxo-5,8-dihydro-pyrido[2,3-d]pyrimidine-6-carboxylic acid amide]
110	–	CCNC(=O)c1cn(-c2ccc3c(c2)CCC3)c2nc(Nc3cccc(C(=O)N(C)C)c3)ncc2c1=O [Cpd 81, 2-(3-Dimethylcarbamoyl-phenylamino)-8-indan-5-yl-5-oxo-5,8-dihydro-pyrido[2,3-d]pyrimidine-6-carboxylic acid ethylamide]
56	–	CN1CCN(c2ccc(Nc3cc4c(cn3)c(=O)c(C(N)=O)cn4-c3ccc4c(c3)CCC4)cc2)CC1 [Cpd 26, 1-Indan-5-yl-7-[4-(4-methyl-piperazin-1-yl)-phenylamino]-4-oxo-1,4-dihydro-[1,6]naphthyridine-3-carboxylic acid amide]
4100	–	CN1CCN(CC(=O)N2CCC(c3ccc(Nc4ncc5c(=O)c(C(N)=O)cn(-c6ccc7c(c6)CCC7)c5n4)cc3)CC2)CC1 [Cpd 72, 8-Indan-5-yl-2-(4-{1-[2-(4-methyl-piperazin-1-yl)-acetyl]-piperidin-4-yl}-phenylamino)-5-oxo-5,8-dihydro-pyrido[2,3-d]pyrimidine-6-carboxylic acid amide]
32	–	CCNC(=O)c1cn(-c2ccc3c(c2)CCC3)c2nc(Nc3ccc(CCN4CCN(C)CC4)cc3)ncc2c1=O [Cpd 48, 8-Indan-5-yl-2-{4-[2-(4-methyl-piperazin-1-yl)-ethyl]-phenylamino}-5-oxo-5,8-dihydro-pyrido[2,3-d]pyrimidine-6-carboxylic acid ethyl amide]
62	–	CN(C)C(=O)c1cccc(Nc2ncc3c(=O)c(C(N)=O)cn(-c4ccc5c(c4)CCC5)c3n2)c1 [Cpd 79, 2-(3-Dimethylcarbamoyl-phenylamino)-8-indan-5-yl-5-oxo-5,8-dihydro-pyrido[2,3-d]pyrimidine-6-carboxylic acid amide]
35	–	CN1CCN(c2ccc(Nc3ncc4c(=O)c(C(N)=O)cn(C5CCCCC5)c4n3)cc2)CC1 [Cpd 60, 8-Cyclohexyl-2-[4-(4-methyl-piperazin-1-yl)-phenylamino]-5-oxo-5,8-dihydro-pyrido[2,3-d]pyrimidine-6-carboxylic acid amide]
> 1000	–	CN1CCN(CC(=O)N2CCC(c3cccc(Nc4ncc5c(=O)c(C(N)=O)cn(-c6ccc7c(c6)CCC7)c5n4)c3)CC2)CC1 [Cpd 73, 8-Indan-5-yl-2-(3-{1-[2-(4-methyl-piperazin-1-yl)-acetyl]-piperidin-4-yl}-phenylamino)-5-oxo-5,8-dihydro-pyrido[2,3-d]pyrimidine-6-carboxylic acid amide]
50	–	CNC(=O)c1cn(C2CCCCC2)c2nc(Nc3cccc(N4CCN(C)CC4)c3)ncc2c1=O [Cpd 64, 8-Cyclohexyl-2-[3-(4-methyl-piperazin-1-yl)-phenylamino]-5-oxo-5,8-dihydro-pyrido[2,3-d]pyrimidine-6-carboxylic acid methyl amide]
120	–	CNC(=O)c1cn(C2CCCCC2)c2nc(Nc3ccc(CCN4CCOCC4)cc3)ncc2c1=O [Cpd 58, 8-Cyclohexyl-2-[4-(2-morpholin-4-yl-ethyl)-phenylamino]-5-oxo-5,8-dihydro-pyrido[2,3-d]pyrimidine-6-carboxylic acid methyl amide]
21	–	CN1CCN(c2cccc(Nc3ncc4c(=O)c(C(N)=O)cn(C5CCCCC5)c4n3)c2)CC1 [Cpd 63, 8-Cyclohexyl-2-[3-(4-methyl-piperazin-1-yl)-phenylamino]-5-oxo-5,8-dihydro-pyrido[2,3-d]pyrimidine-6-carboxylic acid amide]
–	18	NC(=O)c1cn(-c2ccc3c(c2)CCC3)c2nc(Nc3ccc(CN4CCOCC4)cc3)ncc2c1=O [Cpd 69, 8-Indan-5-yl-2-(4-morpholin-4-ylmethyl-phenylamino)-5-oxo-5,8-dihydro-pyrido[2,3-d]pyrimidine-6-carboxylic acid amide]
190	–	CCNC(=O)c1cn(C2CCCCC2)c2nc(Nc3ccc(CCN4CCOCC4)cc3)ncc2c1=O [Cpd 59, 8-Cyclohexyl-2-[4-(2-morpholin-4-yl-ethyl)-phenylamino]-5-oxo-5,8-dihydro-pyrido[2,3-d]pyrimidine-6-carboxylic acid ethyl amide]
1100	–	CN1CCN(c2ccc(Nc3ncc4c(=O)c(C(=O)O)cn(-c5ccc6c(c5)CCC6)c4n3)cc2)CC1 [Cpd 6, 8-Indan-5-yl-2-[4-(4-methyl-piperazin-1-yl)-phenylamino]-5-oxo-5,8-dihydro-pyrido[2,3-d]pyrimidine-6-carboxylic acid]
100	–	CNC(=O)c1cn(-c2ccc3c(c2)CCC3)c2nc(Nc3ccc(CCS(=O)(=O)NC(C)C)cc3)ncc2c1=O [Cpd 33, 8-Indan-5-yl-2-[4-(2-isopropylsulfamoyl-ethyl)-phenylamino]-5-oxo-5,8-dihydro-pyrido[2,3-d]pyrimidine-6-carboxylic acid methyl amide]
7400	–	CN(C)CC(=O)N1CCC(c2cccc(Nc3ncc4c(=O)c(C(N)=O)cn(-c5ccc6c(c5)CCC6)c4n3)c2)CC1 [Cpd 71, 2-{3-[1-(2-Dimethylamino-acetyl)-piperidin-4-yl]-phenylamino}-8-indan-5-yl-5-oxo-5,8-dihydro-pyrido[2,3-d]pyrimidine-6-carboxylic acid amide]
93	–	CN1CCN(c2ccc(Nc3ncc4c(=O)c(C(N)=O)cn(-c5ccc6c(c5)CCC6)c4n3)c(O)c2)CC1 [Cpd 25, 2-[2-Hydroxy-4-(4-methyl-piperazin-1-yl)-phenylamino]-8-indan-5-yl-5-oxo-5,8-dihydro-pyrido[2,3-d]pyrimidine-6-carboxylic acid amide]
590	–	CCOC(=O)c1cn(-c2ccc3c(c2)CCC3)c2nc(Nc3cccc(N(C)C)c3)ncc2c1=O [Cpd 5, 2-(3-Dimethylamino-phenylamino)-8-indan-5-yl-5-oxo-5,8-dihydro-pyrido[2,3-d]pyrimidine-6-carboxylic acid ethyl ester]
> 1000	–	CCNC(=O)c1cn(-c2ccc3c(c2)CCC3)c2nc(Nc3ccc(CCS(=O)(=O)NC(C)C)cc3)ncc2c1=O [Cpd 34, 8-Indan-5-yl-2-[4-(2-isopropylsulfamoyl-ethyl)-phenylamino]-5-oxo-5,8-dihydro-pyrido[2,3-d]pyrimidine-6-carboxylic acid ethyl amide]
25	–	CCNC(=O)c1cn(-c2ccc3c(c2)CCC3)c2nc(Nc3ccc(C4CCNCC4)cc3)ncc2c1=O [Cpd 51, 8-Indan-5-yl-5-oxo-2-(4-piperidin-4-yl-phenylamino)-5,8-dihydro-pyrido[2,3-d]pyrimidine-6-carboxylic acid ethyl amide]

SMILES	IC50 [1] [nM]	IC50 [nM]
CNC(=O)c1cn(Cc2ccccc2)c2nc(Nc3ccc(N4CCN(C)CC4)cc3)ncc2c1=O [Cpd 85, 8-Benzyl-2-[4-(4-methyl-piperazin-1-yl)-phenylamino]-5-oxo-5,8-dihydro-pyrido[2,3-d]pyrimidine-6-carboxylic acid methylamide]	420	–

Reference: patent US7642270B2, “5-oxo-5,8-dihydro-pyrido-pyrimidine as inhibitors of c-fms kinase” (Janssen Pharmaceutica N.V., priority 2005, dated 2010)
